Results reported in patent publication US20130184222A1, “[…] ACTIVE COMPOSITIONS AND THEIR METHODS OF USE” (AGIOS PHARMACEUTICALS, INC, priority 2010, published 2013).

Tested on: U87MG cells
Assay: Cellular assay: inhibition of 2-HG production in U87MG cells (LC-MS, 48 hours)
Assay type: cell-based
Conditions: Homo sapiens, U-87 MG, 2-HG in media by LC-MS
Experimental: Cells (HT1080 or U87MG) were grown in T125 flasks in DMEM containing 10% FBS, 1× penicillin/streptomycin and 500 ug/mL G418 (present in U87MG cells only). They were harvested by trypsin and seeded into 96 well white bottom plates at a density of 5000 cell/well in 100 ul/well in DMEM with 10% FBS. No cells were placed in columns 1 and 12. Cells were incubated overnight at 37° C. in 5% CO2. The next day test compounds were made up at 2× the final concentration and 100 ul were added to each cell well. The final concentration of DMSO was 0.2% and the DMSO control wells were plated in row G. The plates were then placed in the incubator for 48 hours. At 48 hours, 100 ul of media was removed from each well and analyzed by LC-MS for 2-HG concentrations. The cell plate was placed back in the incubator for another 24 hours. At 72 hours post compound addition, 10 mL/plate of Promega Cell Titer Glo reagent was thawed and mixed. The cell plate was removed from the incubator and allowed to equilibrate to room temperature. Then 100 ul of Promega Cell Titer Glo reagent was added to each well of media. The cell plate was then placed on an orbital shaker for 10 minutes and then allowed to sit at room temperature for 20 minutes. The plate was then read for luminescence with an integration time of 500 ms.

| Structure (SMILES) | IC50 |
| --- | --- |
| Cc1ccccc1C(C(=O)NC1CCCCC1)N(C(=O)Cc1c[nH]c2ccccc12)c1cccc(F)c1 (centres unmarked) [Compound 126] | ≤ 0.25 µM |
| Cc1ccccc1C(C(=O)NC1CCCCC1)N(C(=O)Cn1cnc2ccccc21)c1cccc(F)c1 (centres unmarked) [Compound 135] | 0.25 to 1 µM |
| Cc1ccccc1C(C(=O)NC1CCCCC1)N(C(=O)CNCCc1ccccc1)c1cccc(F)c1 (centres unmarked) [Compound 154] | 1 to 5 µM |
| Cc1ccccc1C(C(=O)NC1CCCCC1)N(C(=O)Cc1cscn1)c1cccc(F)c1 (centres unmarked) [Compound 158] | 0.25 to 1 µM |

Target: IDH1 R132H (Homo sapiens, UniProt O75874, R132H)
Sequence (O75874 whole entry R132H): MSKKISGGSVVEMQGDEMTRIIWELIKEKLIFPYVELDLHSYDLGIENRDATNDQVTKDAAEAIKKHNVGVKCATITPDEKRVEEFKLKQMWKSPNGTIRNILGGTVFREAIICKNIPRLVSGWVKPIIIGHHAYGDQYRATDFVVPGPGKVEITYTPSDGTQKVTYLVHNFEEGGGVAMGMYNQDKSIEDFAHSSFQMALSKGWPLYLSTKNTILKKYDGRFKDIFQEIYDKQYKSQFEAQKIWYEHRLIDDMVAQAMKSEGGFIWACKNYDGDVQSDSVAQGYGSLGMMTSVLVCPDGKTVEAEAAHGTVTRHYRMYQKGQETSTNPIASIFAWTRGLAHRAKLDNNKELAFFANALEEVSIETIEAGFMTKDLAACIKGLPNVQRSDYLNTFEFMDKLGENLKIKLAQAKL
Assay: In vitro assay for IDH1 R132H inhibitors (NADPH/aKG, resazurin detection)
Assay type: biochemical
Conditions: Table 4B; 0.2 μg/ml IDH1 R132H, 50 minutes at room temperature; read-out: IC50, IDH1 R132H Inhibition
Experimental: Assays were conducted in a volume of 76 μl assay buffer (150 mM NaCl, 10 mM MgCl2, 20 mM Tris pH 7.5, 0.03% bovine serum albumin) as follows in a standard 384-well plate: To 25 ul of substrate mix (8 uM NADPH, 2 mM aKG), 1 μl of test compound was added in DMSO. The plate was centrifuged briefly, and then 25 μl of enzyme mix was added (0.2 μg/ml IDH1 R132H) followed by a brief centrifugation and shake at 100 RPM. The reaction was incubated for 50 minutes at room temperature, then 25 μl of detection mix (30 μM resazurin, […]) was added and the mixture further incubated for 5 minutes at room temperature. The conversion of resazurin to resorufin was detected by fluorescent spectroscopy at Ex544 Em590 c/o 590.
The compounds of Formula I set forth in Table 1 and the compounds set forth in Table 2 were tested in this assay and the results set forth below in Table 4A and 4B.

| Structure (SMILES) | IC50 |
| --- | --- |
| Cc1ccccc1C(C(=O)NC1CCCCC1)N(C(=O)Cc1c[nH]c2ccccc12)c1cccc(F)c1 (centres unmarked) [Compound 126] | ≤ 0.1 µM |
| Cc1ccccc1C(C(=O)NC1CCCCC1)N(C(=O)Cn1cnc2ccccc21)c1cccc(F)c1 (centres unmarked) [Compound 135] | ≤ 0.1 µM |
| O=C(NC1CCCCC1)C(c1cccc(F)c1)N(C(=O)Cc1cccs1)c1cccc(F)c1 (centres unmarked) [Compound 137] | 0.1 to 1 µM |
| Cc1ccccc1C(C(=O)NC1CCCCC1)N(C(=O)c1cccs1)c1cccc(F)c1 (centres unmarked) [Compound 138] | 0.1 to 1 µM |
| Cc1ccccc1C(C(=O)NC1CCCCC1)N(C(=O)c1c(C)noc1C)c1cccc(F)c1 (centres unmarked) [Compound 139] | 0.1 to 1 µM |
| Cc1ccccc1C(C(=O)NC1CCCCC1)N(C(=O)Cc1cccs1)c1cccc(Cl)c1 (centres unmarked) [Compound 140] | ≤ 0.1 µM |
| Cc1ccccc1C(C(=O)NC1CCCCC1)N(C(=O)CN1CCCCC1)c1cccc(F)c1 (centres unmarked) [Compound 141] | 0.1 to 1 µM |
| C#CC(=O)N(c1cccc(F)c1)C(C(=O)NC1CCCCC1)c1ccccc1C (centres unmarked) [Compound 142] | 0.1 to 1 µM |
| Cc1ccccc1C(C(=O)NC1CCCCC1)N(C(=O)CN1CCc2ccccc2C1)c1cccc(F)c1 (centres unmarked) [Compound 143] | 0.1 to 1 µM |
| Cc1ccc(N(C(=O)Cc2cccs2)C(C(=O)NC2CCCCC2)c2ccccc2C)cc1 (centres unmarked) [Compound 144] | 0.1 to 1 µM |
| Cc1ccccc1C(C(=O)NC1CCCCC1)N(C(=O)Cc1cccs1)c1ccc(F)cc1 (centres unmarked) [Compound 145] | 0.1 to 1 µM |
| Cc1ccccc1C(C(=O)NC1CCCCC1)N(C(=O)Cc1cccs1)c1cccc(Br)c1 (centres unmarked) [Compound 146] | 0.1 to 1 µM |
| Cc1ccccc1C(C(=O)NC1CCCCC1)N(C(=O)Cc1cccs1)c1ccccc1Cl (centres unmarked) [Compound 147] | 0.1 to 1 µM |
| Cc1ccccc1C(C(=O)NC1CCCCC1)N(C(=O)Cc1cccs1)c1ccc(Cl)cc1 (centres unmarked) [Compound 148] | 0.1 to 1 µM |
| Cc1ccccc1C(C(=O)NC1CCCCC1)N(C(=O)Cc1cccs1)c1ccc2c(c1)OCCO2 (centres unmarked) [Compound 149] | 0.1 to 1 µM |
| Cc1ccccc1C(C(=O)NC1CCCCC1)N(C(=O)Cc1ccsc1)c1cccc(F)c1 (centres unmarked) [Compound 150] | ≤ 0.1 µM |
| Cc1ccccc1C(C(=O)NC1CCCCC1)N(C(=O)Cn1nnc2ccccc21)c1cccc(F)c1 (centres unmarked) [Compound 151] | 0.1 to 1 µM |
| Cc1ccccc1C(C(=O)NC1CCCCC1)N(C(=O)CNCc1ccccc1)c1cccc(F)c1 (centres unmarked) [Compound 152] | 0.1 to 1 µM |
| Cc1ccccc1C(C(=O)NC1CCCCC1)N(C(=O)CN1CCc2ccccc21)c1cccc(F)c1 (centres unmarked) [Compound 153] | 0.1 to 1 µM |
| Cc1ccccc1C(C(=O)NC1CCCCC1)N(C(=O)CNCCc1ccccc1)c1cccc(F)c1 (centres unmarked) [Compound 154] | 0.1 to 1 µM |
| Cc1ccccc1C(C(=O)NC1CCCCC1)N(C(=O)CNc1ccccc1)c1cccc(F)c1 (centres unmarked) [Compound 155] | ≤ 0.1 µM |
| Cc1ccccc1C(C(=O)NC1CCCCC1)N(C(=O)Cn1ccnc1)c1cccc(F)c1 (centres unmarked) [Compound 156] | 0.1 to 1 µM |
| Cc1ccccc1C(C(=O)NC1CCCCC1)N(Cc1cccs1)C(=O)Cn1nnc2ccccc21 (centres unmarked) [Compound 157] | 0.1 to 1 µM |
| Cc1ccccc1C(C(=O)NC1CCCCC1)N(C(=O)Cc1cscn1)c1cccc(F)c1 (centres unmarked) [Compound 158] | 0.1 to 1 µM |
| Cc1ccccc1C(C(=O)NC1CCOCC1)N(C(=O)Cc1cccs1)c1cccc(F)c1 (centres unmarked) [Compound 159] | 0.1 to 1 µM |
| Cc1ccccc1C(C(=O)Nc1ccccc1Br)N(C(=O)Cc1cccs1)c1cccc(F)c1 (centres unmarked) [Compound 164] | 0.1 to 1 µM |
| Cc1ccccc1C(C(=O)NC1CCCCC1)N(Cc1cccs1)C(=O)CN1CCCc2ccccc21 (centres unmarked) [Compound 168] | 1 to 10 µM |
| Cc1ccccc1C(C(=O)NC1CCCCC1)N(Cc1cccs1)C(=O)CNCc1ccncc1 (centres unmarked) [Compound 169] | 0.1 to 1 µM |

| Structure (SMILES) | IC50 |
| --- | --- |
| Cc1ccccc1C(C(=O)NC1CCCCC1)N(C(=O)Cc1ccc(OC(=O)N2CCN(C)CC2)cc1)c1cccc(F)c1 (centres unmarked) [Compound 277] | 1 to 10 µM |
| O=C(NC1CCCCC1)C(c1ccccc1F)N(C(=O)CNCc1ccncc1)c1cccc(F)c1 (centres unmarked) [Compound 323] | 0.1 to 1 µM |
| Cc1ccccc1C(C(=O)NC1CCCCC1)N(C(=O)Cn1ccnn1)c1cccc(F)c1 (centres unmarked) [Compound 329] | 0.1 to 1 µM |
| Cc1ccccc1[C@@H](C(=O)NC1CCCCC1)N(C(=O)[C@H]1CCCCN1)c1cccc(F)c1 [Compound 337] | 0.1 to 1 µM |
| Cc1ccccc1[C@@H](C(=O)NC1CCCCC1)N(C(=O)[C@@H]1CCCN1C(=O)OC(C)(C)C)c1cccc(F)c1 [Compound 343] | 0.1 to 1 µM |
| CCOC(=O)N1CCCC[C@H]1C(=O)N(c1cccc(F)c1)[C@H](C(=O)NC1CCCCC1)c1ccccc1C [Compound 348] | ≤ 0.1 µM |
| Cc1ccccc1[C@@H](C(=O)NC1CCCCC1)N(C(=O)[C@@H]1CCCCN1S(C)(=O)=O)c1cccc(F)c1 [Compound 349] | 0.1 to 1 µM |
| Cc1ccccc1C(C(=O)NC1CCCCC1)N(C(=O)CNC(=O)OC(C)(C)C)c1ccccc1F (centres unmarked) [Compound 352] | 0.1 to 1 µM |
| COC(=O)NCC(=O)N(c1ccc(F)cc1)C(C(=O)NC1CCCCC1)c1ccccc1C (centres unmarked) [Compound 353] | 0.1 to 1 µM |
| COC(=O)N1CCC[C@@H]1C(=O)N(c1cccc(F)c1)[C@H](C(=O)NC1CCCCC1)c1ccccc1C [Compound 355] | 0.1 to 1 µM |
| COC(=O)NCC(=O)N(c1ccc(F)c(F)c1)C(C(=O)NC1CCCCC1)c1ccccc1C (centres unmarked) [Compound 358] | 0.1 to 1 µM |
| CCOC(=O)N1CCC[C@@H]1C(=O)N(c1cccc(F)c1)[C@H](C(=O)NC1CCCCC1)c1ccccc1C [Compound 360] | 0.1 to 1 µM |
| Cc1ccccc1[C@@H](C(=O)NC1CCCCC1)N(C(=O)[C@@H]1CCCN1S(C)(=O)=O)c1cccc(F)c1 [Compound 362] | 0.1 to 1 µM |
| CNC(=O)N1CCCC[C@@H]1C(=O)N(c1cccc(F)c1)[C@H](C(=O)NC1CCCCC1)c1ccccc1C [Compound 364] | 0.1 to 1 µM |
| Cc1ccccc1[C@@H](C(=O)NC1CCCCC1)N(C(=O)[C@H]1CCCCN1C(=O)N(C)C)c1cccc(F)c1 [Compound 365] | 0.1 to 1 µM |
| Cc1ccccc1C(C(=O)NC1CCCCC1)N(C(=O)CNC(=O)OC(C)(C)C)c1cccc(F)c1 (centres unmarked) [Compound 368] | 0.1 to 1 µM |
| Cc1ccccc1C(C(=O)NC1CCCCC1)N(C(=O)CCNC(=O)OC(C)(C)C)c1cccc(F)c1 (centres unmarked) [Compound 369] | 0.1 to 1 µM |
| CC(=O)N1CCC[C@@H]1C(=O)N(c1cccc(F)c1)[C@H](C(=O)NC1CCCCC1)c1ccccc1C [Compound 371] | 0.1 to 1 µM |
| COC(=O)NCC(=O)N(Cc1cccs1)C(C(=O)NC1CCCCC1)c1ccccc1C (centres unmarked) [Compound 372] | 0.1 to 1 µM |
| CNC(=O)N1CCC[C@@H]1C(=O)N(c1cccc(F)c1)[C@H](C(=O)NC1CCCCC1)c1ccccc1C [Compound 375] | 0.1 to 1 µM |
| Cc1ccccc1[C@@H](C(=O)NC1CCCCC1)N(C(=O)[C@H]1CCCN1)c1cccc(F)c1 [Compound 376] | 0.1 to 1 µM |
| O=C(NC1CCCCC1)C(c1ccccc1Cl)N(C(=O)c1cc2ccccc2[nH]1)c1cccc(F)c1 (centres unmarked) [Compound 382] | 0.1 to 1 µM |
| O=C(NC1CCCCC1)C(c1ccccc1Cl)N(C(=O)Cn1cnc(Cl)c1Cl)c1cccc(F)c1 (centres unmarked) [Compound 383] | ≤ 0.1 µM |
| N#Cc1ncn(CC(=O)N(c2cccc(F)c2)C(C(=O)NC2CCCCC2)c2ccccc2Cl)c1C#N (centres unmarked) [Compound 384] | 0.1 to 1 µM |
| COC(=O)N1CCOC[C@H]1C(=O)N(c1cccc(F)c1)[C@H](C(=O)NC1CCCCC1)c1ccccc1C [Compound 385] | ≤ 0.1 µM |
| Cc1ccccc1C(C(=O)NC1CCCCC1)N(C(=O)OCc1ccccc1)c1ccccc1 (centres unmarked) [Compound 391] | 0.1 to 1 µM |
| Cc1ccccc1C(C(=O)NC1CCCCC1)N(C(=O)Oc1ccccc1)c1ccccc1 (centres unmarked) [Compound 392] | 0.1 to 1 µM |
